Data published in paper PMC7763263, “Parameters for Irreversible Inactivation of Monoamine Oxidase” (Molecules, 2020).
Where two headings read alike, the source gives them in different places. Marks after values point to notes of the source that are not given here.

Key:
[1] = molecular target: T1, human MAO-B (Homo sapiens, UniProt P27338); conditions: ratio of IC50 without/with 30 min preincubation; ref Malcomson et al. [40]; cited from earlier work
T1 construct: purchased Sigma-Aldrich (Dorset, UK); host or cells: insect cells (membranes)
T1 sequence (P27338 1-520): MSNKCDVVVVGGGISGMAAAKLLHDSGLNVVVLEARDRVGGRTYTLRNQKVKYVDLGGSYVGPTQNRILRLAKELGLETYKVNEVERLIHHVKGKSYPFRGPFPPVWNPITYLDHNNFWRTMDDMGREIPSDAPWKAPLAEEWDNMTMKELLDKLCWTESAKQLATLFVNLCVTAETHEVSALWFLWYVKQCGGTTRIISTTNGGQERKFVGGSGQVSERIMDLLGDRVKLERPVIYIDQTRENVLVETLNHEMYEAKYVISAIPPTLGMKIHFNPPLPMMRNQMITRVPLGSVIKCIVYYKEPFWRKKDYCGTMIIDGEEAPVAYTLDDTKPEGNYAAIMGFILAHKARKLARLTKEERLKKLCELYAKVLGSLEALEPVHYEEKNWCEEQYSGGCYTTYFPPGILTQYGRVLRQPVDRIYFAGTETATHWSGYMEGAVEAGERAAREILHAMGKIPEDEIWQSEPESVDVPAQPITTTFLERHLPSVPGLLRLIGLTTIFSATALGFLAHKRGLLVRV

[2] = design: method as in PMID 16848670; conditions: depression; cited from earlier work
[3] = molecular target: T2, MAO-A (Homo sapiens, UniProt P21397); design: purchased Sigma-Aldrich (Dorset, UK); host or cells: insect cells (membranes); conditions: ratio of IC50 without/with 30 min preincubation; ref Malcomson et al. [40]; cited from earlier work
T2 sequence (P21397 1-527): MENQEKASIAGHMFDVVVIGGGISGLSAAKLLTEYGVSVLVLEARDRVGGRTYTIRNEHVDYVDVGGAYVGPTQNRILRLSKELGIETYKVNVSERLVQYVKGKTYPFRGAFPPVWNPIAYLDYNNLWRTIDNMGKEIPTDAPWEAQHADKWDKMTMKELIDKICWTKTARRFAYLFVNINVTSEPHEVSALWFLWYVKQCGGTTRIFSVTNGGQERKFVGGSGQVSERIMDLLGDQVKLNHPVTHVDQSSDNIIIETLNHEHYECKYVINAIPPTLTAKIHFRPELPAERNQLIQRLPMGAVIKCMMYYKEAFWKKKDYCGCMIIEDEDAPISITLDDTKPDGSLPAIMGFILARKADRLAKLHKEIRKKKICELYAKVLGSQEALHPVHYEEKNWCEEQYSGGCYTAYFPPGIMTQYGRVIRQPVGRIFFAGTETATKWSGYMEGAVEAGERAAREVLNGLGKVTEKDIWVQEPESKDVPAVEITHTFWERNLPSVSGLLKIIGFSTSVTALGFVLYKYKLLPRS

[4] = test system: MAO; conditions: cited from earlier work
[5] = molecular target: T2, MAO-A; conditions: read-out: MAO-A IC50 AR Assay; without preincubation, tyramine 2× KM (0.8 mM); mean ± SD of 2–4 experiments
Experimental: (§1) The binding of these mechanism-based inhibitors can be assessed by measuring the inhibition without preincubation, adding the enzyme last to the assay mixture with both substrate and inhibitor. […] The IC50 is not an absolute parameter, but rather is a comparative measure that depends on the type of inhibition and the substrate concentration.
(§2) The direct spectrophotometric assay using purified MAO-A (30–50 nM) was added last to a 1 mL final volume of 50 mM potassium phosphate pH 7.5 containing inhibitor (0–100 μM) and 0.3 mM kynuramine (equivalent to 2× KM). The increase in absorbance was followed at 314 nm in a Shimadzu UV-2101 spectrophotometer. The coupled assay in black 96-well plates (Eppendorf UK Ltd., Stevenage, UK) used tyramine, Ampliflu™ Red (AR), horseradish peroxidase (HRP) and membrane-bound human MAO-A and MAO-B purchased from Sigma-Aldrich (Dorset, UK). Final concentrations were 50 μM AR, 1 U/mL HRP, and 1 nM enzyme. The substrate was tyramine either at 2× KM (0.8 mM for MAO-A or 0.32 mM for MAO-B) for reversible binding or at 1 mM to assess remaining active MAO after incubation with the inactivators.
(§3) Ki values were calculated using the global Michaelis–Menten analysis in PRISM from initial rate data for 6 substrate concentrations (tyramine) at 5 inhibitor concentrations.

[6] = molecular target: T1, human MAO-B; type: biochemical; conditions: without preincubation, tyramine 2× KM (0.32 mM); mean ± SD of 2–4 experiments; read-out: MAO-B IC50 AR Assay
Experimental: as §1, §2, §3

[7] = molecular target: T1, human MAO-B; type: biochemical
Experimental: (§4) The IC50 determined after a fixed incubation time has become a routine way to compare inhibition by new inactivators, although both binding and the rate of inactivator oxidation influence the measurement.
as §2

[8] = molecular target: T1, human MAO-B; assay: Time-dependent inactivation, Kitz-Wilson analysis; type: biochemical; conditions: inactivation constant
Experimental: (§5) Rates (as relative fluorescence units per second, rfu/s) were analyzed as the log of the fractional activity remaining compared to control against time to obtain kobs.

[9] = molecular target: T3, purified human MAO-A (Homo sapiens, UniProt P21397); assay: Anaerobic spectral kinetics of flavin reduction and adduct formation (stopped-flow / timed spectra); type: biochemical; conditions: for rate of anaerobic reduction of FAD (absorbance decrease at 495 nm) / rate of adduct formation (absorbance increase at 410 nm): purified MAO-A
T3 construct: made in house; host or cells: Saccharomyces cerevisiae
T3 sequence (P21397 1-527): T2 sequence (P21397 1-527)
Experimental: Purified human MAO-A was dialyzed against 50 mM HEPES pH 7.5 for 1 h and concentrated to at least 40 μM before loading into the rapid-mixing device syringes. MAO-A (40 μM) was mixed with an equal volume of 50 mM HEPES pH 7.5 containing excess inactivating compound in the stopped-flow spectrophotometer (Applied Photophysics SX20) at 30 °C. For anaerobic experiments, the system was flushed with 10 mM dithionite before rinsing well with buffer containing 30 mM glucose, 1 U/mL glucose oxidase, and 24 U/mL catalase. Both the MAO-A and the compound to be added were flushed with argon before the addition of 30 mM glucose, 1 U/mL glucose oxidase, and 24 U/mL catalase to ensure anaerobiosis during the experiment. Absorbance changes were measured in triplicate at three wavelengths (410, 456, and 495 nm). The absorbance acquisition rate was set at 1000 Hz for the interval 0–0.5 s and 4 Hz for the interval 0.5–1000 s. The absorbance changes were analyzed using single or double exponential fits in the built-in software as appropriate.
Figure 7 Time courses for absorbance changes in MAO-A incubated anaerobically with propargylamine inactivators.

[10] = molecular target: T2, MAO-A; conditions: read-out: MAO-A Ki Direct; ref Esteban et al. [18]; cited from earlier work
[11] = molecular target: T2, MAO-A; assay: IC50 after 30 min preincubation, coupled assay with saturating substrate; type: biochemical; design: purchased Sigma-Aldrich (Dorset, UK); host or cells: insect cells (membranes); conditions: ratio of IC50 without/with 30 min preincubation
Experimental: as §4, §2

[12] = molecular target: T2, MAO-A; assay: Time-dependent inactivation, Kitz-Wilson analysis; type: biochemical; design: purchased Sigma-Aldrich (Dorset, UK); host or cells: insect cells (membranes)
Experimental: as §5

[13] = molecular target: T1, human MAO-B; conditions: cited from earlier work
[14] = molecular target: T2, MAO-A; assay: Partition ratio by long-term incubation; type: biochemical; design: made in house; host or cells: Saccharomyces cerevisiae; conditions: incubation at 30 °C up to 10 days
[15] = molecular target: T2, MAO-A; assay: Activity remaining or recovered after anaerobic incubation with inactivator; type: biochemical; design: made in house; host or cells: Saccharomyces cerevisiae
Description: MAO-A was made anaerobic by cycling with vacuum and argon. […] After the admission of oxygen to the cuvette, the 420 nm absorbance increased rapidly, accompanied by loss of activity.
In order to find a cause for the 600 nm absorbance, we considered whether oxidation could occur at either carbon adjacent to the amine nitrogen in MAO-A. (MAO-B is inactivated by F2MPA [19], so presumably, the normal allenyl imine product is formed by oxidation at the carbon between the amine and the propargyl group, CαP.) The alternative furfuryl imine product that would result from oxidation at the carbon on the other side of the amine nitrogen (between the amine and the furan ring, CαF) is shown in Scheme 2. Chemical analysis was attempted to detect the putative products of oxidation and molecular modeling to explore the interactions of F2MPA with MAO-A and MAO-B.

[16] = molecular target: T2, MAO-A; design: purchased Sigma-Aldrich (Dorset, UK); host or cells: insect cells (membranes); method as in PMID 27977122; conditions: cited from earlier work
[17] = Figure S4, anaerobic stopped-flow, 30 C

## N[C@H]1C[C@@H]1c1ccccc1 (racemic) [Tranylcypromine]
[1]
  MAO-B Enhancement: 54.7 ^a
[2]
  patient response rates: over 50%
[3]
  MAO-A Enhancement: 100 ^a

## N[C@H]1C[C@@H]1c1ccccc1 [1S,2R-trans-2-phenylcyclopropylamine]
[4]
  times more potent in vitro than the other enantiomer: 60 times

## C#CCN(C)Cc1cc2cc(OCCCC3CCN(Cc4ccccc4)CC3)ccc2n1C [ASS234, N-[[5-[3-(1-benzylpiperidin-4-yl)propoxy]-1-methylindol-2-yl]methyl]-N-methylprop-2-yn-1-amine]
[5]
  IC50: 33 ± 3 nM
[6]
  IC50: 3200 ± 410 nM
[7]; read-out: MAO-B IC50 after 30 min preincubation, human MAO in insect cell membranes, saturating substrate
  IC50: 120 ± 20 nM
[8]
  Ki: 1740 nM
[9]; anaerobic
  rate of anaerobic reduction of FAD (absorbance decrease at 495 nm): 3.36 min⁻¹
[10]
  Ki: 53 ± 14 nM
[11]
  MAO-A Enhancement: 122
[12]
  Ki: 45 nM

## C#CCN(C)Cc1ccco1 [F2MPA, N-(furan-2-ylmethyl)-N-methylprop-2-yn-1-amine]
[9]; F2MPA 2 mM, MAO-A 22 μM, anaerobic
  time for completion of biphasic decrease in absorbance at 495 nm: more than 21 h
[9]; anaerobic
  rate of anaerobic reduction of FAD (absorbance decrease at 495 nm): 0.0034 ± 0.0009 min⁻¹
[13]
  MAO-B kinact: 0.61 min⁻¹
  MAO-B kinact/KI: 0.0045 min^−1μM^−1
[13]; inactivation constant
  Ki: 135000 nM
[14]
  partition ratio: > 1000
[15]; MAO-A incubated anaerobically […] with 0.5 mM
  activity retained: 7%
[15]; after […] anaerobic incubation with 0.5 mM
  activity restored by overnight aerobic dialysis: 88%
[16]
  MAO-A kinact: 0.087 min⁻¹
  MAO-A kinact/KI: 0.0005 min^−1μM^−1
[16]; inactivation constant
  Ki: 187000 nM

## C#CCN(C)Cc1ccccc1 [Pargyline]
[7]; ratio of IC50 without/with 30 min preincubation
  MAO-B Enhancement: 292
[9]; [17]
  k, 410 nm (adduct): 0.0043 s⁻¹
  k, 485 nm (reduction): 0.0047 s⁻¹
[9]; anaerobic
  rate of adduct formation (absorbance increase at 410 nm): 0.26 ± 0.03 min⁻¹
  rate of anaerobic reduction of FAD (absorbance decrease at 495 nm): 0.28 ± 0.02 min⁻¹
[11]
  MAO-A Enhancement: 48

## NNCCc1ccccc1 [Phenelzine]
[2]
  patient response rates: over 50%

## C#CCN(C)[C@H](C)Cc1ccccc1 [Selegiline, (2R)-N-methyl-1-phenyl-N-prop-2-ynylpropan-2-amine]
[9]; anaerobic
  rate of adduct formation (absorbance increase at 410 nm): 0.016 ± 0.003 min⁻¹
  rate of anaerobic reduction of FAD (absorbance decrease at 495 nm): 0.019 ± 0.002 min⁻¹
[11]
  MAO-A Enhancement: 357
